From PubChem BioAssay AID330 (DTP/NCI, 2004)
“And” between values parts separate entries of the source, which are not always exact repeats. Equal values may be shown once. Toxic doses and inconclusive results are not listed.

System: P388 leukemia ip, CD2F1 mice, survival T/C
Experiment: NCI In Vivo Anticancer Drug Screen. Data for tumor model P388 Leukemia (intraperitoneal) in CD2F1 (CDF1) mice
Details: endpoint: median survival time, higher = longer survival
How it was run: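 Mice carrying the transplanted tumor received test compound or vehicle. Survival was recorded in each group, and the value is the treated-group measurement divided by that of the vehicle-treated control group.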

[1] = dose: 25.0 mg/kg/injection, schedule: Q01DX009 (ip), vehicle: saline with Tween-80
[2] = dose: 50.0 mg/kg/injection, schedule: Q01DX009 (ip), vehicle: saline with Tween-80
[3] = dose: 100.0 mg/kg/injection, schedule: Q01DX009 (ip), vehicle: saline with Tween-80
[4] = dose: 50.0 mg/kg/injection, schedule: Q01DX005 (ip), vehicle: Klucel (hydroxypropylcellulose) (HPC)
[5] = dose: 100.0 mg/kg/injection, schedule: Q01DX005 (ip), vehicle: Klucel (hydroxypropylcellulose) (HPC)
[6] = dose: 200.0 mg/kg/injection, schedule: Q01DX005 (ip), vehicle: Klucel (hydroxypropylcellulose) (HPC)
[7] = dose: 200.0 mg/kg/injection, schedule: Q01DX009 (ip), vehicle: saline with Tween-80
[8] = dose: 12.5 mg/kg/injection, schedule: Q01DX005 (ip), vehicle: Klucel (hydroxypropylcellulose) (HPC)
[9] = dose: 25.0 mg/kg/injection, schedule: Q01DX005 (ip), vehicle: Klucel (hydroxypropylcellulose) (HPC)

CCN(CC)CCOc1cccc2c1C(=O)c1c(O)cccc1C2=O
T/C [1]: 103 % of control and 95 % of control
T/C [2]: 105 % of control and 97 % of control
T/C [3]: 158 % of control

CCOC(=O)C(=CNc1ccccc1-n1cccc1)C(=O)OCC
T/C [4]: 100 % of control
T/C [5]: 108 % of control
T/C [6]: 93 % of control

COC1=Cc2c(O)c3c(c(O)c2C(OC2CC(N)C(O)C(C)O2)C1)C(=O)c1c(OC)cccc1C3=O (configuration not stated)
T/C (dose: 3.13 mg/kg/injection, schedule: Q04DX003 (ip), vehicle: water): 98 % of control
T/C (dose: 6.25 mg/kg/injection, schedule: Q04DX003 (ip), vehicle: water): 98 % of control
T/C (dose: 12.5 mg/kg/injection, schedule: Q04DX003 (ip), vehicle: water): 102 % of control
T/C (dose: 25.0 mg/kg/injection, schedule: Q04DX003 (ip), vehicle: water): 109 % of control
T/C (dose: 50.0 mg/kg/injection, schedule: Q04DX003 (ip), vehicle: water): 107 % of control

O=C(CNC(=O)OCc1ccccc1)Oc1ccccc1[N+](=O)[O-]
T/C [2]: 94 % of control
T/C [3]: 100 % of control
T/C [7]: 111 % of control

Nc1ncc2[nH]c(N)nc2n1
T/C [8]: 106 % of control
T/C [9]: 97 % of control
T/C [4]: 104 % of control and 107 % of control

CC1S(=O)(=O)OCCCOS1(=O)=O
T/C [8]: 119 % of control
T/C [9]: 154 % of control

COc1ccc(-c2cc(=O)c3cc(C)c(C)c(C#N)c3o2)cc1
T/C (dose: 3.75 mg/kg/injection, schedule: Q01DX005 (ip), vehicle: Klucel (hydroxypropylcellulose) (HPC)): 120 % of control
T/C (dose: 7.5 mg/kg/injection, schedule: Q01DX005 (ip), vehicle: Klucel (hydroxypropylcellulose) (HPC)): 93 % of control
T/C (dose: 15.0 mg/kg/injection, schedule: Q01DX005 (ip), vehicle: Klucel (hydroxypropylcellulose) (HPC)): 109 % of control
T/C (dose: 120.0 mg/kg/injection, schedule: Q01DX005 (ip), vehicle: Klucel (hydroxypropylcellulose) (HPC)): 86 % of control

CC1(C)CC(C)(OC(=O)c2ccc(Cl)cc2)N=N1 (configuration not stated)
T/C (dose: 12.5 mg/kg/injection, schedule: Q01DX009 (ip), vehicle: saline with Tween-80): 104 % of control
T/C [1]: 103 % of control
T/C [2]: 99 % of control
T/C [3]: 99 % of control
T/C [7]: 98 % of control

ONc1cnc2ccccc2n1
T/C [4]: 103 % of control
T/C [5]: 100 % of control
T/C [6]: 100 % of control

CCCCCCCCCCCCCCCCCCCCN1CCOCC1
T/C (dose: 12.5 mg/kg/injection, schedule: Q01DX009 (ip), vehicle: saline): 102 % of control
T/C (dose: 25.0 mg/kg/injection, schedule: Q01DX009 (ip), vehicle: saline): 107 % of control
T/C [2]: 92 % of control
T/C (dose: 50.0 mg/kg/injection, schedule: Q01DX009 (ip), vehicle: saline): 101 % of control and 97 % of control
T/C [3]: 90 % of control
T/C (dose: 100.0 mg/kg/injection, schedule: Q01DX009 (ip), vehicle: saline): 100 % of control
T/C (dose: 200.0 mg/kg/injection, schedule: Q01DX009 (ip), vehicle: saline): 90 % of control

C=CCn1c(=O)oc2ccc(Cl)cc21
T/C (dose: 10.0 mg/kg/injection, schedule: Q01DX009 (ip), vehicle: saline with Tween-80): 104 % of control
T/C (dose: 20.0 mg/kg/injection, schedule: Q01DX009 (ip), vehicle: saline with Tween-80): 104 % of control
T/C (dose: 40.0 mg/kg/injection, schedule: Q01DX009 (ip), vehicle: saline with Tween-80): 104 % of control

CC1(C)OC2OC(C3COC(=S)O3)C(O)C2O1 (configuration not stated)
T/C [4]: 98 % of control
T/C [5]: 99 % of control
T/C [6]: 103 % of control

O=c1[nH]c2cc([N+](=O)[O-])ccc2o1
T/C (dose: 50.0 mg/kg/injection, schedule: Q01DX009 (ip), vehicle: Klucel (hydroxypropylcellulose) (HPC)): 102 % of control
T/C (dose: 100.0 mg/kg/injection, schedule: Q01DX009 (ip), vehicle: Klucel (hydroxypropylcellulose) (HPC)): 105 % of control
T/C (dose: 200.0 mg/kg/injection, schedule: Q01DX009 (ip), vehicle: Klucel (hydroxypropylcellulose) (HPC)): 105 % of control
